This assay deals with T1, PARP (Mus musculus, UniProt P11103).
T1 construct: PARP Activity in Cultured Macrophages, Using a Whole-Cell Based Assay; host or cells: murine RAW macrophages
Nature of the assay: PARP activity in cultured macrophages, whole-cell based assay (3H-NAD+ incorporation after hydrogen peroxide). The following applies: murine RAW macrophages; compound 1 hour prior to hydrogen peroxide (0.5 mM) for 25 minutes; PARP activity by 3H-NAD+. On the procedure: Effect of Indenoisoquinolinone Analogs on PARP Activity in Cultured Macrophages, Using a Whole-Cell Based Assay
The murine RAW macrophages (ATCC, American Type Culture Collection, Manassas, Va.) were grown in RPMI […] (Invitrogen Life Technologies; Carlsbad, Calif.) medium supplemented with 10% heat-inactivated FBS, 2 mM L-glutamine, and 100 U/ml of penicillin and streptomycin. Cells, between passages 5 and 15, were seeded at a density of 250,000 cells/well in 12 well plates and allowed to grow 48 hours before use. Growth medium was changed on the day of use. Cells were treated with an Indenoisoquinolinone Analog diluted in a growth medium supplemented with 10% fetal bovine serum (FBS) for 1 hour prior to the addition of hydrogen peroxide (0.5 mM) for a further 25 minutes. For the measurement of PARP activity, media was removed and replaced with 0.5 ml of the assay buffer (56 mM HEPES-pH 7.5, 28 mM KCl, 28 mM NaCl, 2 mM MgCl2, 0.01% digitonin, and 0.5 μCi/m1 of ^3H-NAD^+) for 20 minutes. After aspirating the assay buffer, cells were lysed and transferred to eppendorf tubes containing 250 μl of 50% ice-cold trichloroacetic acid (TCA), which were then placed at 4° C. for 4 hours. Samples were centrifuged at 10,000 g for 10 minutes and supernatant removed. The pellets were washed twice with 500 μl of ice-cold 5% w/v TCA. The pellets were then solubilized in 250 μl of NaOH (0.1 M) containing 2% SDS overnight at 37° C. and the PARP activity was then determined by measuring the radioactivity incorporated using a Wallac scintillation counter. The solubilized protein (250 μl) was mixed with 5 ml of scintillation fluid (ScintiSafe Plus, Fisher Scientific) before being counted for 3 minutes. EC50 values were determined from a dose-response curve.

Counter-ions that a name gives are not always drawn.

The EC50 is the concentration needed to bring the measured effect to its halfway point. High values mean a less potent agent, low ones a more potent agent.

T1 sequence (P11103 whole entry): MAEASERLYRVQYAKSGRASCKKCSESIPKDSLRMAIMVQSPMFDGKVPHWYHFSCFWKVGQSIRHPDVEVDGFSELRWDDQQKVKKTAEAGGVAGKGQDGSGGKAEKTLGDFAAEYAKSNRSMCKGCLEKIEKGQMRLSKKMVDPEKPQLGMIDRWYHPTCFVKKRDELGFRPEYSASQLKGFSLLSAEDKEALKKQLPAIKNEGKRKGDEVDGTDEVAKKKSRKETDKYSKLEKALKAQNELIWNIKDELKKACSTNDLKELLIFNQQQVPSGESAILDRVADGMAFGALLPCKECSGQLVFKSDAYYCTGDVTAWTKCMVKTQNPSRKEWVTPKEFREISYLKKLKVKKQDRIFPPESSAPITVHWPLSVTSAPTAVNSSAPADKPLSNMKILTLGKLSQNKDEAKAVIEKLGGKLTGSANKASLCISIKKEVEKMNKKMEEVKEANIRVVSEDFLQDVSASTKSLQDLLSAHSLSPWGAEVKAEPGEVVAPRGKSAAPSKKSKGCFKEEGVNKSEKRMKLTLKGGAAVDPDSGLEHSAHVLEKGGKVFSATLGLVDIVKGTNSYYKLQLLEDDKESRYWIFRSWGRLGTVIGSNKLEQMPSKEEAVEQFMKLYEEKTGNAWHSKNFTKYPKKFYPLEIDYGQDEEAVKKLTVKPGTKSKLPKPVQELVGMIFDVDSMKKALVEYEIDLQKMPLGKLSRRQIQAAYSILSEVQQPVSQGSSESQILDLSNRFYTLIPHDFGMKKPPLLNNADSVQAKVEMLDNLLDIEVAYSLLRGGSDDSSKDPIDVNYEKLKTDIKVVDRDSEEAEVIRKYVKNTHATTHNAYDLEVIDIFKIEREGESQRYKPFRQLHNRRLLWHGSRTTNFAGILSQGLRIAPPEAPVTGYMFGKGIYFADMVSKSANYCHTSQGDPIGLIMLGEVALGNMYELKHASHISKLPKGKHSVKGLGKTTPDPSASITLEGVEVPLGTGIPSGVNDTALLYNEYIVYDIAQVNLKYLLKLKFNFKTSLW

Regarding `O=c1[nH]c2c(c3ccccc13)Cc1cc(CN3CCN(CC4CC4)CC3)ccc1-2` [Dihydrochloride salt of IIIb-3, 9-[1-(4-Cyclopropylmethylpiperazino)methyl]-5,6-dihydro-5-oxo-11-H-indeno[1,2-c]isoquinoline dihydrochloride], the response was half-maximal at 10 nM (EC50). The result for `O=c1[nH]c2c(c3ccccc13)Cc1cc(CN3CCN(C4CCCCC4)CC3)ccc1-2` [Dihydrochloride salt of IIIb-14, 9-[1-(4-Cyclohexylpiperazino)methyl]-5,6-dihydro-5-oxo-11-H-indeno[1,2-c]isoquinoline dihydrochloride] reads 20 nM; that for `CC(C)N1CCN(Cc2cccc3c2Cc2c-3[nH]c(=O)c3ccccc23)CC1` [IIIa-1, 10-[1-(4-iso-Propylpiperazino)methyl]-5,6-dihydro-5-oxo-11-H-indeno[1,2-c]isoquinoline], 45 nM; that for `CCCCN1CCN(Cc2cccc3c2Cc2c-3[nH]c(=O)c3ccccc23)CC1` [IIIa-2, 10-[1-(4-Butylpiperazino)methyl]-5,6-dihydro-5-oxo-11-H-indeno[1,2-c]isoquinoline], 25 nM. The result for `O=c1[nH]c2c(c3ccccc13)Cc1c(CN3CCN(CC4CC4)CC3)cccc1-2` [IIIa-3, 10-[1-(4-Cyclopropylmethylpiperazino)methyl]-5,6-dihydro-5-oxo-11-H-indeno[1,2-c]isoquinoline] reads 20 nM; that for `O=c1[nH]c2c(c3ccccc13)Cc1c(CNCCCO)cccc1-2` [IIIa-4, 10-[N-1-(3-Hydroxypropyl)aminomethyl]-5,6-dihydro-5-oxo-11-H-indeno[1,2-c]isoquinoline], 15 nM. The figure for `O=c1[nH]c2c(c3ccccc13)Cc1c(CNCCN3CCCC3)cccc1-2` [IIIa-5, 10-[N-(2-Pyrollidinoethyl)aminomethyl}-5,6-dihydro-5-oxo-11-H-indeno[1,2-c]isoquinoline] is 40 nM; for `O=c1[nH]c2c(c3ccccc13)Cc1c(CN3CCN(c4ncccn4)CC3)cccc1-2` [IIIa-8, 10-{1-[4-(2-Pyrimidyl)piperazino]methyl}-5,6-dihydro-5-oxo-11-H-indeno[1,2-c]isoquinoline] it is 75 nM. For `O=c1[nH]c2c(c3ccccc13)Cc1c(CN3CC[C@H](F)C3)cccc1-2` [IIIa-11, 10-[S-(3-Fluoropyrrolidino)methyl]-5,6-dihydro-5-oxo-11-H-indeno[1,2-c]isoquinoline], the concentration for a half-maximal effect (EC50) amounted to 12 nM. Against the preceding compound, the EC50 is about 6.2-fold lower. The result for `O=c1[nH]c2c(c3ccccc13)Cc1c(CN3CC=CCC3)cccc1-2` [IIIa-12, 10-[(3,4-Dehydropiperidino)methyl]-5,6-dihydro-5-oxo-11-H-indeno[1,2-c]isoquinoline] reads 7 nM. `CC(C)N1CCN(Cc2ccc3c(c2)Cc2c-3[nH]c(=O)c3ccccc23)CC1` [IIIb-1, 9-[1-(4-iso-Propylpiperazino)methyl]-5,6-dihydro-5-oxo-11-H-indeno[1,2-c]isoquinoline]: a half-maximal response (EC50) required 20 nM. Compound `CCCCN1CCN(Cc2ccc3c(c2)Cc2c-3[nH]c(=O)c3ccccc23)CC1` [IIIb-2, 9-[1-(4-Butylpiperazino)methyl]-5,6-dihydro-5-oxo-11-H-indeno[1,2-c]isoquinoline] came in with an EC50 of 25 nM. The figure for `O=c1[nH]c2c(c3ccccc13)Cc1cc(CN3CCN(c4ncccn4)CC3)ccc1-2` [IIIb-8, 9-{1-[4-(2-Pyrimidyl)piperazino]methyl}-5,6-dihydro-5-oxo-11-H-indeno[1,2-c]isoquinoline] is 75 nM. The result for `O=c1[nH]c2c(c3ccccc13)Cc1cc(CN3CCN(C4CCCC4)CC3)ccc1-2` [IIIb-9, 9-[1-(4-Cyclopentylpiperazino)methyl]-5,6-dihydro-5-oxo-11-H-indeno[1,2-c]isoquinoline dihydrochloride] reads 20 nM; that for `CCOCCN1CCN(Cc2ccc3c(c2)Cc2c-3[nH]c(=O)c3ccccc23)CC1` [IIIb-10, 9-{1-[4-(2-Ethoxyethyl)piperazino]methyl}-5,6-dihydro-5-oxo-11-H-indeno[1,2-c]isoquinoline], 75 nM. The figure for `CN1CCCN(Cc2ccc3c(c2)Cc2c-3[nH]c(=O)c3ccccc23)CC1` [IIIb-13, 9-[1-(4-Methylhomopiperazino)methyl]-5,6-dihydro-5-oxo-11-H-indeno[1,2-c]isoquinoline] is 25 nM; for `CC(C)(C)OC(=O)N1CCN(Cc2ccc3c(c2)Cc2c-3[nH]c(=O)c3ccccc23)CC1` [IIIb-16, 9-[(4-tert-Butoxycarbonyl-piperazino)methyl]-5,6-dihydro-5-oxo-11-H-indeno[1,2-c]isoquinoline] it is more than 100 nM. `CC(C)(O)CN1CCN(Cc2ccc3c(c2)Cc2c-3[nH]c(=O)c3ccccc23)CC1` [IIIb-18, 9-[4-(2-Hydroxy-2-methyl-propyl-piperazino)methyl]-5,6-dihydro-5-oxo-11-H-indeno[1,2-c]isoquinoline dihydrochloride]: the EC50 is 75 nM.

`CN(CCN1CCOCC1)Cc1ccc2c(c1)Cc1c-2[nH]c(=O)c2ccccc12` [IIIb-19] returned an EC50 of 30 nM. The figure for `O=c1[nH]c2c(c3ccccc13)Cc1cc(CN3CCCCCC3)ccc1-2` [IIIb-22, 9-(1-Homopiperidinomethyl)-5,6-dihydro-5-oxo-11-H-indeno[1,2-c]isoquinoline] is more than 100 nM. With `C[C@@H]1CN(Cc2ccc3c(c2)Cc2c-3[nH]c(=O)c3ccccc23)C[C@H](C)N1` [IIIb-24, 9-[1-(3,5-Dimethylpiperazino)methyl]-5,6-dihydro-5-oxo-11-H-indeno[1,2-c]isoquinoline], the EC50 is more than 60 nM. The result for `C=CCN1CCN(Cc2cccc3c2Cc2c-3[nH]c(=O)c3ccccc23)CC1` [IIa-1, 10-[1-(4-Allylpiperazino)methyl]-5,6-dihydro-5-oxo-11-H-indeno[1,2-c]isoquinoline] reads 20 nM; that for `O=c1[nH]c2c(c3ccccc13)Cc1c(CN3CCC4(CC3)OCCO4)cccc1-2` [IIa-14, 10-[(4,4-Ethylenedioxy-piperidino)methyl]-5,6-dihydro-5-oxo-11-H-indeno[1,2-c]isoquinoline], 30 nM; that for `O=c1[nH]c2c(c3ccccc13)Cc1c(CNC3(CO)CCCC3)cccc1-2` [IIa-27, 10-{N-[1-(Hydroxymethyl)cyclopentyl]aminomethyl}-5,6-dihydro-5-oxo-11-H-indeno[1,2-c]isoquinoline], less than 10 nM. The figure for `C=CCN1CCN(Cc2ccc3c(c2)Cc2c-3[nH]c(=O)c3ccccc23)CC1` [IIb-1, 9-[1-(4-Allylpiperazino)methyl]-5,6-dihydro-5-oxo-11-H-indeno[1,2-c]isoquinoline] is 45 nM; for `CCC(C)n1c2cc(CN3CCC4(CC3)OCCO4)ccc2c2[nH]c(=O)c3ccccc3c21` (stereo not drawn) [IIb-23] it is 80 nM; for `N#CCCN1CCN(Cc2ccc3c(c2)Cc2c-3[nH]c(=O)c3ccccc23)CC1` [IIb-66, 9-{1-[4-(2-Cyanoethyl)piperazino]methyl}-5,6-dihydro-5-oxo-11-H-indeno[1,2-c]isoquinoline] it is 45 nM.

Turning to `CC(C)(C)OC(=O)N1CCC(N(Cc2ccc3c(c2)Cc2c-3[nH]c(=O)c3ccccc23)C2CC2)CC1` [IIb-79, 9-{N-[4-(1-Boc-piperidyl)]-N-cyclopropylaminomethyl}-5,6-dihydro-5-oxo-11-H-indeno[1,2-c]isoquinoline], the EC50 is more than 60 nM. The figure for `CC(C)(C)OC(=O)N1CCC(NCc2ccc3c(c2)Cc2c-3[nH]c(=O)c3ccccc23)CC1` [IIb-92, 9-{N-[4-(1-Boc-piperidyl)]aminomethyl}-5,6-dihydro-5-oxo-11-H-indeno[1,2-c]isoquinoline] is more than 60 nM; for `CCC(=O)N1CCCN(Cc2ccc3c(c2)Cc2c-3[nH]c(=O)c3ccccc23)CC1` [IIb-118, 9-[(4-Propionyl-homopiperazino)methyl]-5,6-dihydro-5-oxo-11-H-indeno[1,2-c]isoquinoline hydrochloride] it is 60 nM. Turning to `O=C(CN1CCN(Cc2ccc3c(c2)Cc2c-3[nH]c(=O)c3ccccc23)CC1)N1CCCC1` [IIb-157, 9-{1-[4-(1-Pyrrolidinocarbonylmethyl)piperazino]methyl}-5,6-dihydro-5-oxo-11-H-indeno[1,2-c] isoquinoline], the EC50 came to 75 nM.

The compound `O=C(C1CC1)N1CCN(Cc2ccc3c(c2)Cc2c-3[nH]c(=O)c3ccccc23)CC1` [IIb-170, 9-{1-[4-(Cyclopropylcarbonyl)piperazino]methyl}-5,6-dihydro-5-oxo-11-H-indeno[1,2-c]isoquinoline] showed a concentration for a half-maximal effect (EC50) of 75 nM. The figure for `CCOC(CN1CCN(Cc2ccc3c(c2)Cc2c-3[nH]c(=O)c3ccccc23)CC1)OCC` [IIb-196, 9-{1-[4-(2,2-Diethoxyethyl)piperazino]methyl}-5,6-dihydro-5-oxo-11-H-indeno[1,2-c]isoquinoline] is 75 nM.

These data come from US20100121049A1, “INDENOISOQUINOLINONE ANALOGS AND METHODS OF USE THEREOF” (INOTEK PHARMACEUTICALS CORPORATION, priority 2007, published 2010).
